Measured values published in US20180243298A1, “TRPV3 MODULATORS” (AbbVie Inc., priority 2015, published 2018).
Like-named read-outs stand apart in the source and are kept apart here.

Tests used:
TRPV3 = TRPV3 activation, relatively weak and nonspecific across TRPs; cited from earlier work
human TRPV3 = target: T1, human TRPV3 (Homo sapiens, UniProt Q8NET8); test: Calcium flux assay (FLIPR TETRA), recombinant HEK293 cells expressing TRPV3, 2-APB response; assay type: cell-based; conditions: 2-APB at its EC80
T1 construct: expressed in transfected cells; host or cells: HEK293
T1 sequence (Q8NET8 1-790): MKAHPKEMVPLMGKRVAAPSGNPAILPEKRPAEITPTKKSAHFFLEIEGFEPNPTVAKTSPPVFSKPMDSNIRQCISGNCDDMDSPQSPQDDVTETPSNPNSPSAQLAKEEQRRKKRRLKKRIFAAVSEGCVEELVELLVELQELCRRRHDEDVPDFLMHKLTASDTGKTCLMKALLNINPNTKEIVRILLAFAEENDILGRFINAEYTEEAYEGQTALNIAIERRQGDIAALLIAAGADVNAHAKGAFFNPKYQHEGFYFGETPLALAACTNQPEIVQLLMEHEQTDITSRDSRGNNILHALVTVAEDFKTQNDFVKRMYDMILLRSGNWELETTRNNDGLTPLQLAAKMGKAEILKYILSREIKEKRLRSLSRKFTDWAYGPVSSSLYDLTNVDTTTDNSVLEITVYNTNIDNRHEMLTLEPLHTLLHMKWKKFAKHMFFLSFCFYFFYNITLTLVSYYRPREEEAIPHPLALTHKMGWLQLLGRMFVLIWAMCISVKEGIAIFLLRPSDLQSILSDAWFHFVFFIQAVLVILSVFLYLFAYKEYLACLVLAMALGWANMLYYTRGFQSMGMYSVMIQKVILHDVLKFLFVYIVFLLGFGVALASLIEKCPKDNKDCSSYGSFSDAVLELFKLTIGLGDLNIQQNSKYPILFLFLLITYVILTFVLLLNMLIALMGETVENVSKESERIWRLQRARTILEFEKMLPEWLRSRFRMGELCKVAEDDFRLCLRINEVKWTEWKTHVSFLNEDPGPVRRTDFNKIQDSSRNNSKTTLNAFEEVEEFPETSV
Summary of the method: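 HEK293 cells stably expressing human or mouse TRPV3, loaded with Calcium-4 dye for 90–120 min, read on FLIPR TETRA. Peak fluorescence rise over baseline expressed as percent of the maximal response to 2-APB at its EC80 without compound.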

FITC-challenged mice = test: Contact hypersensitivity (CHS) to FITC, ear swelling in mice; assay type: in vivo, mice (BALB/c); conditions: reduction in ear skin thickness vs vehicle, 24 hours after FITC challenge
Method: (ii) In vivo Data The following protocol was used to evaluate the efficacy of a compound against contact hypersensitivity:
Young adult female BALB/c mice (18±2 g body weight at 6-8 weeks old) Charles River Laboratories) were maintained under pathogen-free conditions and housed in an animal room maintained t at temperature of 21±1° C. and a humidity of 43±5%. Induction of contact hypersensitivity (CHS) and ear thickness measurements for all animals were carried out under light anesthesia (3-5% isoflurane/oxygen) for 1-2 minutes.
Contact hypersensitivity consists of the afferent or initiation sensitizing phase, and the efferent or elicitation phase. The latter phase occurs when epidermal cells encounter a particular antigen to which the epidermal cells have previously been exposed, and is characterized in rodents by localized swelling in the skin.
Fluorescein isothiocyanate (FITC) was purchased from Sigma-Aldrich and dissolved in 1:1 in acetone/dibutylphthalate prior to epicutaneous application. Mice were sensitized by painting epicutaneously 40 uL of 0.5% FITC on the abdomen ventral skin shaved one day prior to sensitization. Six days later, mice were challenged by painting epicutaneously 20 uL total volume of 0.5% FITC on the right ear (10 uL on either side). Control mice were treated with vehicle only. Ear swelling was measured 24 hours after challenge. Treatment groups were dosed orally at a dose volume of 10 mL/kg with compounds either BID (1 hour prior to FITC challenge, 8 hours after first dose and 2 hours prior to ear swelling measurement at 24 hours post FITC challenge) or QD (1 hour prior to FITC challenge and 2 hours prior to ear swelling measurement at 24 hours post FITC challenge). Inflammation was determined by the degree of ear swelling of the hapten exposed ear compared with the untreated ear with a Quick Mini thickness-gauge caliber (Mitutoyo, Japan). The change in ear thickness after allergen treatment can be used to calculate the percent suppression of contact hypersensitivity.
The level of compound-mediated suppression of ear skin thickness in FITC-challenged mice is indicated in Table 2 wherein “A” refers to a reduction in ear skin thickness of >50%, “B” refers to a reduction in ear skin thickness of 30-50% and “C” refers to a reduction in ear skin thickness of <30% relative to vehicle-treated animals.

[1] = Mus musculus, 30 mg/kg bid po, read-out: FITC % effect

Row | Compound | IC50 (human TRPV3) [µM] | inhibition in vivo at 30 mg/kg (FITC-challenged mice; [1]) [%] | also measured
1 | c1ccc(B(OB(c2ccccc2)c2ccccc2)c2ccccc2)cc1 [DPBA, diphenylboronic anhydride] |  |  | EC50 (TRPV3): ~40 µM
2 | NCCOB(c1ccccc1)c1ccccc1 [Example 2-APB, 2-aminoethoxydiphenylborate] |  |  | EC50 (TRPV3): ~40 µM
3 | COc1ncnc(OC)c1C(=O)Nc1nc(C(F)(F)F)c(-c2cccnc2C)s1 [Example 64, 4,6-dimethoxy-N-[5-(2-methylpyridin-3-yl)-4-(trifluoromethyl)-1,3-thiazol-2-yl]pyrimidine-5-carboxamide] | < 0.05 |  | inhibition in vivo at 30 mg/kg (FITC-challenged mice; Mus musculus, 30 mg/kg qd po, read-out: FITC % effect): 30 to 50%
4 | COc1ncnc(OC)c1C(=O)Nc1nc(C(F)(F)F)c(-c2ccnc(C#N)c2)s1 [Example 66, N-[5-(2-cyanopyridin-4-yl)-4-(trifluoromethyl)-1,3-thiazol-2-yl]-4,6-dimethoxypyrimidine-5-carboxamide] | 0.05 to 0.1 |  | inhibition in vivo at 100 mg/kg (FITC-challenged mice; Mus musculus, 100 mg/kg bid po, read-out: FITC % effect): > 50%
5 | COc1ncnc(OC)c1C(=O)Nc1nc(C(F)(F)F)c(-c2cnoc2)s1 [Example 169, 4,6-dimethoxy-N-[5-(1,2-oxazol-4-yl)-4-(trifluoromethyl)-1,3-thiazol-2-yl]pyrimidine-5-carboxamide] | < 0.05 | < 30 | 
6 | COc1ncnc(OC)c1C(=O)Nc1nc(C(F)(F)F)c(-c2ccc3nonc3c2)s1 [Example 199, N-[5-(2,1,3-benzoxadiazol-5-yl)-4-(trifluoromethyl)-1,3-thiazol-2-yl]-4,6-dimethoxypyrimidine-5-carboxamide] | < 0.05 | 30 to 50 | 
7 | N-[5-(4-cyanophenyl)-4-(trifluoromethyl)-1,3-thiazol-2-yl]-4,6-dimethoxypyrimidine-5-carboxamide [Example 41] | < 0.05 |  | FITC % effect (FITC-challenged mice; 30 mg/kg bid po): C (a reduction in ear skin thickness of <30% relative to vehicle-treated animals)

Further lines, with some results ahead:

Row | IC50 (human TRPV3) [µM] | Compound | inhibition in vivo at 30 mg/kg (FITC-challenged mice; [1]) [%] | also measured
8 | < 0.05 | COc1ncnc(OC)c1C(=O)Nc1nc(C(F)(F)F)c(-c2cc(C(F)(F)F)nn2C)s1 [Example 65, 4,6-dimethoxy-N-{5-[1-methyl-3-(trifluoromethyl)-1H-pyrazol-5-yl]-4-(trifluoromethyl)-1,3-thiazol-2-yl}pyrimidine-5-carboxamide] | < 30 | 
9 | < 0.05 | COc1ncnc(OC)c1C(=O)Nc1nc(C(F)(F)F)c(-c2cncc(C(F)(F)F)c2)s1 [Example 196, 4,6-dimethoxy-N-{4-(trifluoromethyl)-5-[5-(trifluoromethyl)pyridin-3-yl]-1,3-thiazol-2-yl}pyrimidine-5-carboxamide] | < 30 | 
10 | < 0.05 | COc1ncnc(OC)c1C(=O)Nc1nc(C(F)(F)F)c(-c2cnc(C(F)(F)F)nc2)s1 [Example 202, 4,6-dimethoxy-N-{4-(trifluoromethyl)-5-[2-(trifluoromethyl)pyrimidin-5-yl]-1,3-thiazol-2-yl}pyrimidine-5-carboxamide] | < 30 | 
